# Patent US10125356B2, “Enzymatic methods and enzymes” (Givaudan SA, priority 2007, dated 2018)
# Assays:
# [1] = test system: Ax20 peptidase (SEQ ID NO: 2); experiment: Release of 3-sulfanyl-3-methyl-hexanol from cys-gly-conjugate by clear lysate of recombinant E. coli expressing Ax20 peptidase, monobromobimane fluorescence test; type: biochemical, Corynebacterium sp. Ax20; settings: conjugate 1 mM
# Description: (§1) Samples of each fraction were incubated both with the β-lyase and with the cys-gly-conjugate at the same time, and the release of 3-sulfanyl-3-methyl-hexanol was determined by a fluorescence test specific for free SH groups: To this end the enzyme reaction was stopped by adding 0.5 volumes of NaCO3-buffer (0.1 M, pH 8.8) containing 0.5 mM monobromobimane, thus derivatising the free thiol-group. Fluorescence was then measured on a Flex-station (Molecular devices, Sunnyvale, Calif., USA) with an excitation wavelength of 385 nm and an emission wavelength of 480 nm.
# (§2) 50 ml of recombinant E. coli culture formed as described in example 3 and 4 was harvested, resuspended in a final volume of 3 ml of phosphate buffer and then disrupted with ultrasonication. The soluble extract was cleared by centrifugation. Different dilutions of the resulting extract were incubated with the cys-gly-conjugate (1 mM) and in presence as well as in absence of an excess of the β-lyase. As a negative control, clear cell lysate from E. coli transformed with an empty vector, and cell lysates with the cys-gly-conjugate but no β-lyase were used.
# [2] = test system: K411 peptidase (SEQ ID NO: 4); experiment: Release of 3-sulfanyl-3-methyl-hexanol from cys-gly-conjugate by clear lysate of recombinant E. coli expressing K411 peptidase, monobromobimane fluorescence test; type: biochemical, Corynebacterium jeikeium K411; settings: conjugate 1 mM
# Description: as §1, §2
# Ax20 peptidase = experiment: Substrate specificity of recombinant Ax20 peptidase, cleavage by thin layer chromatography; type: biochemical, Corynebacterium sp. Ax20; settings: 1 mM solution, 0.1 or 1 μg/ml peptidase, incubation 1 h
# Description: The recombinant Ax20 peptidase formed as described in example 3 (affinity column purified tagged enzyme) was incubated with different compounds, in particular potential candidate dipeptide substrates, to characterize the substrate specificity and to identify substrates useful for screening assays (for example to screen for modulators including inhibitors).
# The table below lists the tested compounds (mostly dipeptides indicated by their short names, e.g. ala-gly for an alanine-glycine dipeptide) and indicates whether they are cleaved by the peptidase. Z indicates a benzyloxy-carbonyl protecting group at the N-terminus of the peptide.
# Cleavage was determined by thin layer chromatography.
# Amounts are qualitative with (+++) indicating >80% cleavage of a 1 mM solution by 0.1 μg/ml peptidase during an incubation for 1 h; (++) indicates complete cleavage of a 1 mM solution by 1 μg/ml peptidase during an incubation for 1 h and (+) indicates partial cleavage (20-80%) of a 1 mM solution by 1 μg/ml peptidase during an incubation for 1 h and (−) indicating the absence of any cleavage.
# β-lyase = target: T1, β-lyase (Corynebacterium striatum, UniProt Q64HC5); experiment: Cleavage of conjugates by β-lyase, release of 3-sulfanyl-3-methyl-hexanol by gas chromatography; type: biochemical, Corynebacterium sp. Ax20; settings: conjugate 1 mM incubated with β-lyase
# T1 construct: made in house
# Description: The test compounds (Cys-conjugate (1 mM) or Cys-Gly-conjugate (1 mM)) were incubated with β-lyase.
# (§3) Cleavage was measured by gas chromatography to determine the release of 3-sulfanyl-3-methyl-hexanol in mM.
# C. sp. Ax 20 extract = experiment: Cleavage of conjugates by Corynebacterium sp. Ax20 cellular extract, release of 3-sulfanyl-3-methyl-hexanol by gas chromatography; type: biochemical; settings: conjugate 1 mM incubated with C. sp. Ax 20 extract for 24 h
# Description: The test compounds (cys-conjugate (1 mM) or cys-gly-conjugate (1 mM)) were incubated also with the wild-type strain Corynebacterium sp. Ax20 extract naturally containing the peptidase of SEQ ID NO:2. Corynebacterium sp. Ax20 cellular extract was prepared as described in example 1. The resulting extract was diluted to the same volume as the original culture has had when adjusted to an optical density of OD 4. The substrate was incubated with the extract for 24 h.
# as §3
# [3] = test system: Ax20 peptidase (SEQ ID NO: 2); experiment: Inhibition of Pro-Gly cleavage by recombinant Ax20 peptidase, fluorescamine detection of free NH2; type: biochemical, Corynebacterium sp. Ax20; settings: Pro-Gly 1 mM, 1 μg/ml peptidase, 60 min at 37° C.
# Description: Cleavage of the peptide substrate Pro-Gly by addition of the recombinant Ax20 peptidase (SEQ ID NO: 2) released a unique free NH2 group which can be derivatized by fluorescamine (Fluram™, Fluka, Buchs, Switzerland). Test compounds (for example, potential enzyme inhibitors) are dissolved in dimethylsulfoxid (DMSO), for example in individual wells of a microtiter plate. […] Controls are run in parallel and subjected to the same procedure. A positive control contains DMSO without inhibitor, a negative control contains no substrate.
# [4] = test system: peptidase (SEQ ID NO:2) and β-lyase; experiment: Inhibition of free SH release from S-benzyl-cys-gly by peptidase plus β-lyase, monobromobimane detection; type: biochemical, Corynebacterium sp. Ax20; settings: peptidase 0.1 μg/ml, β-lyase 5 μg/ml
# Description: For the results shown below (S-benzyl)-cys-gly was used.
# Instead of derivatising the free NH2 group of the conjugate by adding Fluram, the free SH group released from the conjugate by the subsequent action of both enzymes was derivatised by adding monobromobimane (Fluka, Buchs, Switzerland) dissolved in a NaCO3 buffer (100 mM, pH 8.8) to give a final concentration of 0.5 mM to 1 mM. After 5 to 15 min incubation the fluorescence was measured on a Flex-station (Molecular devices, Sunnyvale, Calif., USA) with an excitation wavelength of 385 nm and an emission wavelength of 480 nm.
# [5] = target: T2, AMRE enzyme (Nα-acyl-glutamine-aminoacylase) (Corynebacterium striatum, UniProt Q8GGD4); experiment: Inhibition of AMRE-catalysed release of free NH2 groups from N-Lauroyl-glutamine; type: biochemical
# T2 construct: made in house
# Description: In an additional step to example 7 or 8, the identified peptidase inhibitors were tested for their modulating effect against the AMRE enzyme (Nα-acyl-glutamine-aminoacylase described by Natsch in EP1258531), thereby identifying dual inhibitors of both metallopeptidase enzymes involved in malodour release.
# AMRE is formed as described in example 6 of EP1258531.
# C. sp. Ax20 extract = experiment: Inhibition of malodourant release by C. sp. Ax20 extract; type: biochemical, Corynebacterium sp. Ax20; settings: o-phenantrolin 0.5 mM, Complete at manufacturer's use concentration, 10 min pre-incubation
# Description: (§4) Extracts from C. sp. Ax20 and C. jeikeium K411 were formed as described in example 1.
# (§5) O-phenantrolin (0.5 mM), a metallopeptidase inhibitor, or Complete™ (EDTA free), a protease inhibitor mix (Roche biochemicals, Switzerland; use concentration as indicated by the manufacturer) that contains broad specificity serine and […] inhibitors but no metallopeptidase inhibitors were added to batches of the extracts and incubated for 10 min.
# (§6) The cys-conjugate or the cys-gly-conjugate (1 mM), both precursors for the malodourant 3-sulfanyl-3-methyl-hexanol, were then added to the C. sp. Ax20 or C. jeikeium K411 extracts containing the different inhibitors.
# (§7) The release of the malodourant 3-sulfanyl-3-methyl-hexanol, which indicates enzyme activity in the Corynebacteria cell lysates, was measured as described in examples 12 and 13.
# (§8) The results (in % inhibition of 3-sulfanyl-3-methyl-hexanol release compared to reactions without added inhibitors) are indicated in the table below.
# C. jeikeium K411 extract = experiment: Inhibition of malodourant release by C. jeikeium K411 extract; type: biochemical, Corynebacterium jeikeium K411; settings: o-phenantrolin 0.5 mM, Complete at manufacturer's use concentration, 10 min pre-incubation
# Description: as §4, §5, §6, §7, §8
# T2 sequence (Q8GGD4 whole entry): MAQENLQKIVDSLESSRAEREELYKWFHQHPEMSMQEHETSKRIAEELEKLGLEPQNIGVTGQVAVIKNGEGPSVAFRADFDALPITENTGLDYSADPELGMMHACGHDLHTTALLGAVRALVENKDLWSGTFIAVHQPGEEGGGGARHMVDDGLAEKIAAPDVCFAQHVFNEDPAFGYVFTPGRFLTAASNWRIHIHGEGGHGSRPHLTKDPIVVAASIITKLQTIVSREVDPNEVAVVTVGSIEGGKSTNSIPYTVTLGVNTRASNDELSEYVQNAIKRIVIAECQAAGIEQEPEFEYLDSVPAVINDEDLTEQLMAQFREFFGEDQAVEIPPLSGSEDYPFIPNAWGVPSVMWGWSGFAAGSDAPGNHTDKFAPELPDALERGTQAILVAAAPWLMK
# T1 sequence (Q64HC5 whole entry): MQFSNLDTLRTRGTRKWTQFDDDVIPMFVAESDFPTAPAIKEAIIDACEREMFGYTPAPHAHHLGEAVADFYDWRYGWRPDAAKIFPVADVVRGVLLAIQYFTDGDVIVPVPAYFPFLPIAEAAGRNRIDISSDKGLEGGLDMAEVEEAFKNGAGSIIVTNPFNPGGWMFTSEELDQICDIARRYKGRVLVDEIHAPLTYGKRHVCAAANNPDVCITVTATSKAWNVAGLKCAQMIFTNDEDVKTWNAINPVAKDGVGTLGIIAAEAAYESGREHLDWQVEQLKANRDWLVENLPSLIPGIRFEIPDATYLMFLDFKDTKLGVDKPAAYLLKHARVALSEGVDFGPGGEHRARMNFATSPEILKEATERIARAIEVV
smiles,measurement,setting,value
"CCCC(C)(CCO)SC[C@H](N)C(=O)NCC(=O)O (stereo in doubt) [Cys-gly-conjugate, (1-(2-hydroxyethyl)-1-methylbutyl)-L-cysteinyl-glycine]",release of 3-sulfanyl-3-methyl-hexanol from the Cys-Gly-conjugate,"[1]; Ax20 peptidase + β-lyase, clear cell lysate diluted 10 fold",1.00 mM
same,release of 3-sulfanyl-3-methyl-hexanol from the Cys-Gly-conjugate,"[1]; Ax20 peptidase + β-lyase, clear cell lysate diluted 100 fold",0.92 mM
same,release of 3-sulfanyl-3-methyl-hexanol from the Cys-Gly-conjugate,"[1]; Ax20 peptidase + β-lyase, clear cell lysate diluted 1000 fold",0.46 mM
same,release of 3-sulfanyl-3-methyl-hexanol from the Cys-Gly-conjugate,"[1]; Ax20 peptidase w/o β-lyase, clear cell lysate diluted 10 fold",0.10 mM
same,release of 3-sulfanyl-3-methyl-hexanol from the Cys-Gly-conjugate,"[1]; Ax20 peptidase w/o β-lyase, clear cell lysate diluted 100 fold",<0.01 mM
same,release of 3-sulfanyl-3-methyl-hexanol from the Cys-Gly-conjugate,"[1]; Ax20 peptidase w/o β-lyase, clear cell lysate diluted 1000 fold",<0.01 mM
same,release of 3-sulfanyl-3-methyl-hexanol from the Cys-Gly-conjugate,"[1]; Ax20 peptidase with histidine tag + β-lyase, clear cell lysate diluted 10 fold",0.94 mM
same,release of 3-sulfanyl-3-methyl-hexanol from the Cys-Gly-conjugate,"[1]; Ax20 peptidase with histidine tag + β-lyase, clear cell lysate diluted 100 fold",0.88 mM
same,release of 3-sulfanyl-3-methyl-hexanol from the Cys-Gly-conjugate,"[1]; Ax20 peptidase with histidine tag + β-lyase, clear cell lysate diluted 1000 fold",0.36 mM
same,release of 3-sulfanyl-3-methyl-hexanol from the Cys-Gly-conjugate,"[2]; K411 peptidase + β-lyase, clear cell lysate diluted 10 fold",0.55 mM
same,release of 3-sulfanyl-3-methyl-hexanol from the Cys-Gly-conjugate,"[2]; K411 peptidase + β-lyase, clear cell lysate diluted 100 fold",0.19 mM
same,release of 3-sulfanyl-3-methyl-hexanol from the Cys-Gly-conjugate,"[2]; K411 peptidase + β-lyase, clear cell lysate diluted 1000 fold",0.03 mM
same,release of 3-sulfanyl-3-methyl-hexanol from the Cys-Gly-conjugate,"[2]; K411 peptidase w/o β-lyase, clear cell lysate diluted 10 fold",0.10 mM
same,release of 3-sulfanyl-3-methyl-hexanol from the Cys-Gly-conjugate,"[2]; K411 peptidase w/o β-lyase, clear cell lysate diluted 100 fold",<0.01 mM
same,release of 3-sulfanyl-3-methyl-hexanol from the Cys-Gly-conjugate,"[2]; K411 peptidase w/o β-lyase, clear cell lysate diluted 1000 fold",<0.01 mM
same,Cleavage,Ax20 peptidase,+++ ((+++) indicating >80% cleavage of a 1 mM solution by 0.1 μg/ml peptidase during an incubation for 1 h)
same,release of 3-sulfanyl-3-methyl-hexanol from the conjugate,β-lyase,<0.03 mM
same,release of 3-sulfanyl-3-methyl-hexanol from the conjugate,C. sp. Ax 20 extract,0.21 mM
CCCC(C)(CCO)SC[C@H](N)C(=O)O (stereo partly drawn) [cys-conjugate],release of 3-sulfanyl-3-methyl-hexanol from the conjugate,β-lyase,0.59 mM
same,release of 3-sulfanyl-3-methyl-hexanol from the conjugate,C. sp. Ax 20 extract,0.31 mM
c1cnc2c(c1)ccc1cccnc12 [o-Phenantrolin],Inhibition of release of free NH2 groups from Pro-Gly,[3]; test compound 15.625 microM,83.9 % inhibition
same,Inhibition of release of free NH2 groups from Pro-Gly,[3]; test compound 31.25 microM,95.5 % inhibition
same,Inhibition of release of free NH2 groups from Pro-Gly,[3]; test compound 62.5 microM,100.0 % inhibition
same,Inhibition of release of free SH groups from S-benzyl-cys-gly in presence of peptidase and β-lyase,[4]; test compound 15.625 microM,54.2 % inhibition
same,Inhibition of release of free SH groups from S-benzyl-cys-gly in presence of peptidase and β-lyase,[4]; test compound 31.25 microM,79.9 % inhibition
same,Inhibition of release of free SH groups from S-benzyl-cys-gly in presence of peptidase and β-lyase,[4]; test compound 62.5 microM,93.1 % inhibition
same,Inhibition of release of free NH2 groups from N-Lauroyl-glutamine (catalyzed by AMRE),[5]; test compound 15.625 microM,42.4 % inhibition
same,Inhibition of release of free NH2 groups from N-Lauroyl-glutamine (catalyzed by AMRE),[5]; test compound 31.25 microM,81.8 % inhibition
same,Inhibition of release of free NH2 groups from N-Lauroyl-glutamine (catalyzed by AMRE),[5]; test compound 62.5 microM,96.1 % inhibition
same,% inhibition of 3-sulfanyl-3-methyl-hexanol release compared to reactions without added inhibitors,C. sp. Ax20 extract; substrate Cys-Gly-conj. 1 mM,100 % inhibition
same,% inhibition of 3-sulfanyl-3-methyl-hexanol release compared to reactions without added inhibitors,C. sp. Ax20 extract; substrate Cys-conj. 1 mM,0 % inhibition
same,% inhibition of 3-sulfanyl-3-methyl-hexanol release compared to reactions without added inhibitors,C. jeikeium K411 extract; substrate Cys-Gly-conj. 1 mM,93 % inhibition
same,% inhibition of 3-sulfanyl-3-methyl-hexanol release compared to reactions without added inhibitors,C. jeikeium K411 extract; substrate Cys-conj. 1 mM,13 % inhibition
